According to ChEMBL document CHEMBL1128045, “Antifungal lipopeptides: Structure-activity relationships of 3-hydroxyglutamine-modified pneumocandin B0 derivatives” (Bioorg Med Chem Lett, 1995):
In brackets after ≈: the same amount, converted by molar mass. Numbered stars: 1 amine (or outer) side, 2 acyl side, 3 side chain; on linkers, the order of the positions; unused ones are H or OH. Bridge positions count the residues as written; N and C are the ends. Square brackets hold non-standard residues; d marks the D form. Peptide text beside a SMILES is read from it. * marks the point of attachment. Orn(4R-OH,5R-OH) = O=C([C@H](C[C@@H](O)[C@@H](O)N[*:3])N[*:1])[*:2]; hTyr(3S-OH,4S-OH) = N[C@H](C(=O)O)[C@H](O)[C@@H](O)c1ccc(O)cc1; X16 = COC(=O)CCCCCNC(=O)C[C@@H](O)[C@H](N[*:1])C(=O)[*:2]; Orn(4R-OH) = O=C([C@H](C[C@@H](O)CN[*:3])N[*:1])[*:2]; X10 = N#CCN(CC#N)CC[C@@H](O)[C@H](N[*:1])C(=O)[*:2]; X6 = C[N+](C)(C)CC[C@@H](O)[C@H](N[*:1])C(=O)[*:2]; hTyr(3R-OH) = N[C@H](C(=O)O)[C@H](O)Cc1ccc(O)cc1; X12 = CC(=O)NCC[C@@H](O)[C@H](N[*:1])C(=O)[*:2]; X11 = COC(=O)C[C@@H](O)[C@H](N[*:1])C(=O)[*:2]; X3 = O=C(C[C@@H](O)[C@H](N[*:1])C(=O)[*:2])NO; Gln(3R-OH) = NC(=O)C[C@@H](O)[C@H](N)C(=O)O; X17 = O=C([C@@H](N[*:1])[C@H](O)CCO)[*:2]; X9 = N#CC[C@@H](O)[C@H](N[*:1])C(=O)[*:2]; Pro(3S-OH) = O=C(O)[C@H]1NCC[C@@H]1O; Hyp = O=C(O)[C@@H]1C[C@@H](O)CN1; X1 = CCC(C)CC(C)CCCCCCCCC(=O)*

Tests used:
[1] = molecular target: Beta-1,3-glucan synthase (Candida albicans, UniProt O13428); experiment: Tested for inhibition of Beta-1,3-glucan synthase using a crude membrane of Candida albicans (MY 1208).
Chain of Beta-1,3-glucan synthase (O13428 whole entry): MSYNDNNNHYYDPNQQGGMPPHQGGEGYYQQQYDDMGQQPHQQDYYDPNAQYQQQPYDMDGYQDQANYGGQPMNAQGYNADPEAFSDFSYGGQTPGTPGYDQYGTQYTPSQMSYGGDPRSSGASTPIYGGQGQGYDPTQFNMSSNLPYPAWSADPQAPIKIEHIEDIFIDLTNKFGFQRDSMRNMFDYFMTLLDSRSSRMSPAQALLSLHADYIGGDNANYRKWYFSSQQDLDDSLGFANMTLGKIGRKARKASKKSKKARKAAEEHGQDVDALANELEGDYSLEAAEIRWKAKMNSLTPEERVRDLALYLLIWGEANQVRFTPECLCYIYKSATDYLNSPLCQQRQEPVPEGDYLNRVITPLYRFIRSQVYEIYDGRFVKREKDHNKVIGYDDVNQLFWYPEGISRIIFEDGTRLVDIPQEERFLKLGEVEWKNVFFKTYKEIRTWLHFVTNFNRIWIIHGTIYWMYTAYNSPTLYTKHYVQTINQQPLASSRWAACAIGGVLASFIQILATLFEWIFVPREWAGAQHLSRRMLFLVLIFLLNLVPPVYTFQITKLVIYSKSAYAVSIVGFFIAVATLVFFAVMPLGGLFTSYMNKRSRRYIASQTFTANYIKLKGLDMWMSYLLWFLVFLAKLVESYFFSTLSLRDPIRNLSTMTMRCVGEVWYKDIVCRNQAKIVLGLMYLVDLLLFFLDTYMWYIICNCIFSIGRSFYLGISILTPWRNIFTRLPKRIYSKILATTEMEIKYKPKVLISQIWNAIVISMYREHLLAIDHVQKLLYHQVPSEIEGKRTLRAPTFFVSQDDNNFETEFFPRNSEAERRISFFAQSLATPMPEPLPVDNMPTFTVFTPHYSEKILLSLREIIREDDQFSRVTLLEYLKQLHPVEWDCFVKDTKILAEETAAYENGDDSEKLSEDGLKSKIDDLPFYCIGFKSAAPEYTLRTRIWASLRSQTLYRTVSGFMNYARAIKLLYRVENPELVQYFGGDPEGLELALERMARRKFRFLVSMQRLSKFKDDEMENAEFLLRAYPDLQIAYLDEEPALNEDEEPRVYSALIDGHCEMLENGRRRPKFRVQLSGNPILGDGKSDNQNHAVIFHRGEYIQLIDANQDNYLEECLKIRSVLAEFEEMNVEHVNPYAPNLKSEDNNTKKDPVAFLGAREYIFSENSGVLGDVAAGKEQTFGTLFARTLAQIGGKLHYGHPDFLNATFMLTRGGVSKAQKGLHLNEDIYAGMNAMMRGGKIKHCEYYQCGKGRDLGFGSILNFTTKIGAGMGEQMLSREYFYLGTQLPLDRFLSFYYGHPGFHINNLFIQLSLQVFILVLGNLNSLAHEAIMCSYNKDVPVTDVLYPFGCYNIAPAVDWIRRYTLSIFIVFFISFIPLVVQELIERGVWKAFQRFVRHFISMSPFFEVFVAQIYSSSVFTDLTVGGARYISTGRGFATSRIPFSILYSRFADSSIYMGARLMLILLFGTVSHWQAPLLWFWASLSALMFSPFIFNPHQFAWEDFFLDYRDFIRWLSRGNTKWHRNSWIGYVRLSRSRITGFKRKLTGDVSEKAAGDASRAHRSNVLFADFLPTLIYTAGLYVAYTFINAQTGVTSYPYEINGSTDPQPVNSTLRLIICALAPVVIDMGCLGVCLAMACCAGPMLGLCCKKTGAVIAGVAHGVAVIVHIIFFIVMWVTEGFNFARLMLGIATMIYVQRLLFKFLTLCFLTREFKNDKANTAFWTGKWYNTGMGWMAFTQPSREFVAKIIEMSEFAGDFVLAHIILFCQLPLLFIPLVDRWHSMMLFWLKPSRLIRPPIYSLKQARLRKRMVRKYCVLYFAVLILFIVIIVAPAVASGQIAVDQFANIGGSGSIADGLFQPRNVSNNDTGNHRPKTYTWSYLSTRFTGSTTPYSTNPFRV

[2] = In vivo anti-Candida activity was determined in a mouse model of disseminated candidiasis (TOKA).; format: functional
[3] = system: Candida parapsilosis; experiment: In vitro Fungicidal activity (MFC) against Candida parapsilosis (MY 1010).; format: functional; settings: Lodderomyces parapsilosis
[4] = system: Candida albicans; experiment: In vitro Fungicidal activity (MFC) against Candida albicans (MY 1055).; format: functional

| SMILES | IC50 [1] [nM] | ED99.9 [2] [mg/kg] | MFC [3] [µg/mL] | MFC [4] [µg/mL] |
| --- | --- | --- | --- | --- |
| CCC(C)CC(C)CCCCCCCCC(=O)N[C@H]1C[C@@H](O)CNC(=O)[C@@H]2[C@@H](O)CCN2C(=O)[C@H]([C@H](O)CC(=O)NO)NC(=O)[C@H]([C@H](O)Cc2ccc(O)cc2)NC(=O)[C@@H]2C[C@@H](O)CN2C(=O)[C@H]([C@@H](C)O)NC1=O (stereo partly drawn) (X1-[Orn(4R-OH)]T[Hyp][hTyr(3R-OH)][X3][Pro(3S-OH)]; lactam 1-C) | 80 | 6 | 4 (≈ 3.81 µM) | 0.25 (≈ 0.238 µM) |
| CCC(C)CC(C)CCCCCCCCC(=O)N[C@H]1C[C@@H](O)[C@@H](O)NC(=O)[C@@H]2[C@@H](O)CCN2C(=O)[C@H]([C@H](O)CCN(CC#N)CC#N)NC(=O)[C@H]([C@H](O)[C@@H](O)c2ccc(O)cc2)NC(=O)[C@@H]2C[C@@H](O)CN2C(=O)[C@H]([C@@H](C)O)NC1=O (stereo partly drawn) (X1-[Orn(4R-OH,5R-OH)]T[Hyp][hTyr(3S-OH,4S-OH)][X10][Pro(3S-OH)]; lactam 1-C) | > 200 | >1.5 | 8 (≈ 7.08 µM) | 4 (≈ 3.54 µM) |
| CCC(C)CC(C)CCCCCCCCC(=O)N[C@H]1C[C@@H](O)[C@@H](O)NC(=O)[C@@H]2[C@@H](O)CCN2C(=O)[C@H]([C@H](O)CC(N)=O)NC(=O)[C@H]([C@H](O)[C@@H](O)c2ccc(O)cc2)NC(=O)[C@@H]2C[C@@H](O)CN2C(=O)[C@H]([C@@H](C)O)NC1=O (stereo partly drawn) (X1-[Orn(4R-OH,5R-OH)]T[Hyp][hTyr(3S-OH,4S-OH)][Gln(3R-OH)][Pro(3S-OH)]; lactam 1-C) | – | 6 | 1 (≈ 0.939 µM) | 0.25 (≈ 0.235 µM) |
| CCC(C)CC(C)CCCCCCCCC(=O)N[C@H]1C[C@@H](O)[C@@H](O)NC(=O)[C@@H]2[C@@H](O)CCN2C(=O)[C@H]([C@H](O)CC#N)NC(=O)[C@H]([C@H](O)[C@@H](O)c2ccc(O)cc2)NC(=O)[C@@H]2C[C@@H](O)CN2C(=O)[C@H]([C@@H](C)O)NC1=O (stereo partly drawn) (X1-[Orn(4R-OH,5R-OH)]T[Hyp][hTyr(3S-OH,4S-OH)][X9][Pro(3S-OH)]; lactam 1-C) | 100 | – | 2 (≈ 1.91 µM) | 2 (≈ 1.91 µM) |
| CCC(C)CC(C)CCCCCCCCC(=O)N[C@H]1C[C@@H](O)CNC(=O)[C@@H]2[C@@H](O)CCN2C(=O)[C@H]([C@H](O)CC(=O)NCCCCCC(=O)OC)NC(=O)[C@H]([C@H](O)Cc2ccc(O)cc2)NC(=O)[C@@H]2C[C@@H](O)CN2C(=O)[C@H]([C@@H](C)O)NC1=O (stereo partly drawn) (X1-[Orn(4R-OH)]T[Hyp][hTyr(3R-OH)][X16][Pro(3S-OH)]; lactam 1-C) | 250 | – | > 128 | 4 (≈ 3.44 µM) |
| CCC(C)CC(C)CCCCCCCCC(=O)N[C@H]1C[C@@H](O)[C@@H](O)NC(=O)[C@@H]2[C@@H](O)CCN2C(=O)[C@H]([C@H](O)CC[N+](C)(C)C)NC(=O)[C@H]([C@H](O)[C@@H](O)c2ccc(O)cc2)NC(=O)[C@@H]2C[C@@H](O)CN2C(=O)[C@H]([C@@H](C)O)NC1=O (stereo partly drawn) (X1-[Orn(4R-OH,5R-OH)]T[Hyp][hTyr(3S-OH,4S-OH)][X6][Pro(3S-OH)]; lactam 1-C) | 9 | 0.375 | 0.5 | 0.125 |
| CCC(C)CC(C)CCCCCCCCC(=O)N[C@H]1C[C@@H](O)CNC(=O)[C@@H]2[C@@H](O)CCN2C(=O)[C@H]([C@H](O)CC(=O)OC)NC(=O)[C@H]([C@H](O)Cc2ccc(O)cc2)NC(=O)[C@@H]2C[C@@H](O)CN2C(=O)[C@H]([C@@H](C)O)NC1=O (stereo partly drawn) (X1-[Orn(4R-OH)]T[Hyp][hTyr(3R-OH)][X11][Pro(3S-OH)]; lactam 1-C) | 180 | >6 | 4 (≈ 3.82 µM) | 0.5 (≈ 0.477 µM) |
| CCC(C)CC(C)CCCCCCCCC(=O)N[C@H]1C[C@@H](O)[C@@H](O)NC(=O)[C@@H]2[C@@H](O)CCN2C(=O)[C@H]([C@H](O)CCNC(C)=O)NC(=O)[C@H]([C@H](O)[C@@H](O)c2ccc(O)cc2)NC(=O)[C@@H]2C[C@@H](O)CN2C(=O)[C@H]([C@@H](C)O)NC1=O (stereo partly drawn) (X1-[Orn(4R-OH,5R-OH)]T[Hyp][hTyr(3S-OH,4S-OH)][X12][Pro(3S-OH)]; lactam 1-C) | 300 | 12 | 8 (≈ 7.32 µM) | 4 (≈ 3.66 µM) |
| CCC(C)CC(C)CCCCCCCCC(=O)N[C@H]1C[C@@H](O)CNC(=O)[C@@H]2[C@@H](O)CCN2C(=O)[C@H]([C@H](O)CCO)NC(=O)[C@H]([C@H](O)Cc2ccc(O)cc2)NC(=O)[C@@H]2C[C@@H](O)CN2C(=O)[C@H]([C@@H](C)O)NC1=O (stereo partly drawn) (X1-[Orn(4R-OH)]T[Hyp][hTyr(3R-OH)][X17][Pro(3S-OH)]; lactam 1-C) | 200 | – | 8 (≈ 7.84 µM) | 1 (≈ 0.98 µM) |
